For one molecule, IC50 results are on record in patent US20170014375A1, “PHARMACEUTICAL COMPOSITION COMPRISING EFFECTIVE DOSE OF POMIFERIN FOR TREATING CANCERS” (Macau University of Science and Technology, priority 2015, published 2017).

Assay [1] deals with HeLa (human cervical cancer) cells. Description: MTT cytotoxicity assay, HeLa. Format: cell-based. Particulars: 72 h, 3 days, read-out: Means of IC50. As for the experimental part: Pomiferin is dissolved in DMSO at a final concentration of 100 mmol/L and stored at −20° C. Cytotoxicity is assessed using the 3-(4,5-dimethylthiazol-2-yl)-2,5-diphenyltetrazolium bromide assay. 4000-8000 HeLa (human cervical cancer), MCF-7 (human breast cancer), HepG2 and Hep3B (human liver cancer), H1299 and A549 (human lung cancer), LNCap (human prostate cancer) and LLC-1 (mouse Lewis lung carcinoma) cells are seeded on 96-well plates per well. After overnight pre-incubation, the cells are exposed to different concentrations of pomiferin ([…]) for 3 days. Subsequently, 10 μL of MTT reagents is added to each well and incubated at 37° C. for 4 hours followed by the addition of 100 μL solubilization buffer (10% SDS in 0.01 mol/L HCl) and overnight incubation. Absorbance at 585 nm is determined from each well the next day. The percentage of cell viability is calculated using the following formula: Cell viability (%)=Cells number treated/Cells number DMSO control×100. Data are obtained from three independent experiments.
For orientation: Formazan colour is commonly taken as a measure of viable cells.

Assay [2] has as its system caspase-8 deficient (caspase 8KO) mouse embryonic fibroblasts. Put plainly: MTT cytotoxicity assay, caspase 8KO MEFs. The settings on record: Fibroblast, 72 h, 3 days, read-out: Means of IC50. Format: cell-based. As for the experimental part: The test compound of pomiferin is dissolved in DMSO at a final concentration of 100 mmol/L and stored at −20° C. Cytotoxicity is assessed using the 3-(4,5-dimethylthiazol-2-yl)-2,5-diphenyltetrazolium bromide assay as previously described^29. 2500 of caspase wild-type (caspase WT), caspase-3 deficient (caspase 3KO), caspase-7 deficient (caspase 7KO), caspase-3/-7 deficient (caspase 3/7 DKO), caspase-8 deficient (caspase 8KO), Bax-Bak wild-type (Bak-Bak WT) and Bax-Bak double knock out (Bak-Bak DKO) mouse embryonic fibroblasts (MEFs) are seeded on 96-well plates per well. After overnight pre-incubation, the cells are exposed to different concentrations of pomiferin (namely 100, 50, 25, 12.5, 6.25, 3.125, 1.5625, 0.78, 0.39, 0.195, 0.079, 0.039 μmol/L) for 3 days. Subsequently, 10 μL of MTT reagents is added to each well and incubated at 37° C. for 4 hours, followed by the addition of 100 μL solubilization buffer (10% SDS in 0.01 mol/L HCl) and overnight incubation. Absorbance at 585 nm is determined from each well on the following day. The percentage of cell viability is calculated using the following formula: Cell viability (%)=Cells numbertreated/Cells numberDMSO control×100. Data is obtained from three independent experiments.

On to `CC(C)=CCc1c2c(c3occ(-c4ccc(O)c(O)c4)c(=O)c3c1O)C=CC(C)(C)O2` [pomiferin], for which the concentration for half-maximal inhibition (IC50) was 7.36 µM in assay [1] and 4.98 µM in assay [2].

The IC50 is the concentration that inhibits the measured activity by half.
